According to ChEMBL document CHEMBL4387753 (Bioorg Med Chem, 2019):
Values after ≈ are worked out from the molar mass of the structure shown. Active and inactive are the calls of the source. The rule behind the calls is not given here.

Columns and labels:
Staphylococcus aureus [1] = test: Antibacterial activity against Staphylococcus aureus clinical isolate incubated for 24 hrs by CLSI protocol based broth microdilution method; format: functional
Bacillus pumilus [2] = test: Antibacterial activity against Bacillus pumilus CMCC63202 incubated for 24 hrs by CLSI protocol based broth microdilution method; format: functional; details: CMCC63202, 24 h
Staphylococcus aureus [3] = test: Bactericidal activity against penicillin-resistant Staphylococcus aureus clinical isolate assessed as 3 log reduction in number of colony forming units incubated for 24 hrs followed by aliquots transfer to tryptic soy agar and grown for 24 hrs; format: functional
Staphylococcus aureus [4] = test: Bactericidal activity against Staphylococcus aureus ATCC 43300 assessed as 3 log reduction in number of colony forming units incubated for 24 hrs followed by aliquots transfer to tryptic soy agar and grown for 24 hrs; format: functional; details: ATCC 43300, 24 h
Escherichia coli = test: Antibacterial activity against Escherichia coli ATCC 25922 incubated for 24 hrs by CLSI protocol based broth microdilution method; format: functional; details: ATCC 25922, 24 h
Staphylococcus aureus [5] = test: Antibacterial activity against Staphylococcus aureus ATCC 25923 incubated for 24 hrs by CLSI protocol based broth microdilution method; format: functional; details: ATCC 25923, 24 h
Staphylococcus aureus [6] = test: Ratio of MBC for Staphylococcus aureus ATCC 25923 to MIC for Staphylococcus aureus ATCC 25923; format: functional
Bacillus subtilis = test: Antibacterial activity against Bacillus subtilis ATCC 9372 incubated for 24 hrs by CLSI protocol based broth microdilution method; format: functional; details: ATCC 9372, 24 h
Staphylococcus aureus [7] = test: Bactericidal activity against Staphylococcus aureus ATCC 25923 assessed as 3 log reduction in number of colony forming units incubated for 24 hrs followed by aliquots transfer to tryptic soy agar and grown for 24 hrs; format: functional; details: ATCC 25923, 24 h
Staphylococcus aureus [8] = test: Antibacterial activity against methicillin-resistant Staphylococcus aureus ATCC 43300 incubated for 24 hrs by CLSI protocol based broth microdilution method; format: functional; details: ATCC 43300, 24 h
Staphylococcus aureus [9] = test: Bactericidal activity against methicillin-resistant Staphylococcus aureus ATCC 43300 assessed as log reduction in viable bacterial count at 2 ug/ml incubated for 24 hrs by time-kill curve assay; format: functional
Staphylococcus aureus [10] = test: Antibacterial activity against penicillin-resistant Staphylococcus aureus clinical isolate incubated for 24 hrs by CLSI protocol based broth microdilution method; format: functional
Pseudomonas aeruginosa = test: Antibacterial activity against Pseudomonas aeruginosa ATCC 27853 incubated for 24 hrs by CLSI protocol based broth microdilution method; format: functional; details: ATCC 27853, 24 h
[11] = target: T1, Cell division protein FtsZ (Bacillus subtilis (strain 168)) (UniProt P17865); test: Induction of Bacillus subtilis FtsZ polymerization in presence of GTP at 5 ug/ml measured over 30 mins by microtiter plate-based light-scattering assay
T1 sequence (whole entry): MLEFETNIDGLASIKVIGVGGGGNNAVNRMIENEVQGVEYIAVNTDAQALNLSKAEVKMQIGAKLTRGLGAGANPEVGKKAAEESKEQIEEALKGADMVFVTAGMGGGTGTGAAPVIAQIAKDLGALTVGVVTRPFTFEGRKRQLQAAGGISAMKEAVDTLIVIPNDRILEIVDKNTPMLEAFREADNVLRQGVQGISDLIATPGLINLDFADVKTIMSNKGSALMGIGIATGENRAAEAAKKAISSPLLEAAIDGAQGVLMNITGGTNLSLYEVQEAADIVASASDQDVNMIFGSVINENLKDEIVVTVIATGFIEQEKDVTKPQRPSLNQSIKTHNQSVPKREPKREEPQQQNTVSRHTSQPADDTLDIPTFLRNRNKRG

[12] = Clearance in mouse liver microsomes incubated for 20 mins in presence of NADPH by RP-HPLC analysis; format: ADME, Microsome
Staphylococcus aureus [13] = test: Bactericidal activity against methicillin-resistant Staphylococcus aureus ATCC 43300 assessed as log reduction in viable bacterial count at 1 to 8 times MIC incubated for 24 hrs by time-kill curve assay; format: functional
[14] = target: T1, Cell division protein FtsZ (Bacillus subtilis (strain 168)); test: Induction of Bacillus subtilis FtsZ polymerization in presence of GTP measured over 30 mins by microtiter plate-based light-scattering assay
HeLa = test: Growth inhibition of human HeLa cells incubated for 48 hrs by MTT assay; format: cell-based
Bacillus pumilus [15] = test: Effect on bacterial cell morphology in Bacillus pumilus CMCC63202 assessed as increase in bacterial cell length at 0.5 times MIC incubated for 18 hrs by phase-contrast optical microscopic analysis; format: functional, organism-based
[16] = Half life in mouse liver microsomes in presence of NADPH by RP-HPLC analysis; format: ADME, Microsome
[17] = Stability in mouse plasma assessed as degradation of compound at 25 ug/ml incubated for 24 hrs by RP-HPLC analysis; format: ADME, cell-free
[18] = Half life in mouse plasma at 25 ug/ml incubated for 24 hrs by RP-HPLC analysis; format: ADME, cell-free
Staphylococcus aureus [19] = test: Bactericidal activity against methicillin-resistant Staphylococcus aureus ATCC 43300 assessed as log reduction in viable bacterial count at 4 ug/ml incubated for 24 hrs by time-kill curve assay; format: functional

Row | Structure (SMILES) | MIC (Staphylococcus aureus [1]) [µg/mL] | MIC (Bacillus pumilus [2]) [µg/mL] | MBC (Staphylococcus aureus [3]) [µg/mL] | MBC (Staphylococcus aureus [4]) [µg/mL] | MIC (Escherichia coli) [µg/mL] | MIC (Staphylococcus aureus [5]) [µg/mL] | MIC (Bacillus subtilis) [µg/mL] | MBC (Staphylococcus aureus [7]) [µg/mL] | MIC (Staphylococcus aureus [8]) [µg/mL] | MIC (Staphylococcus aureus [10]) [µg/mL] | MIC (Pseudomonas aeruginosa) [µg/mL] | Activity [11] | further results
1 | NC(=O)c1c(F)ccc(OCc2nc3cc(Cl)cnc3s2)c1F | 0.5 (≈ 1.41 µM) | 0.5 (≈ 1.41 µM) | 1 (≈ 2.81 µM) | 1 (≈ 2.81 µM) | > 64 | 1 (≈ 2.81 µM) | 0.5 (≈ 1.41 µM) | 1 (≈ 2.81 µM) | 1 (≈ 2.81 µM) | 1 (≈ 2.81 µM) | > 64 | – | Ratio (Staphylococcus aureus [6]): 1; Activity (Staphylococcus aureus [9]): 4 log10CFU/ml
2 | NC(=O)c1c(F)ccc(OCC2=NN(c3ccc(Br)cc3)C(=O)C2)c1F | – | > 64 | – | – | > 64 | > 64 | > 64 | – | > 64 | > 64 | > 64 | inactive | –
3 | CN[C@H](CC(C)C)C(=O)N[C@H]1C(=O)N[C@@H](CC(N)=O)C(=O)N[C@H]2C(=O)N[C@H]3C(=O)N[C@H](C(=O)N[C@H](C(=O)O)c4cc(O)cc(O)c4-c4cc3ccc4O)[C@H](O)c3ccc(c(Cl)c3)Oc3cc2cc(c3O[C@@H]2O[C@H](CO)[C@@H](O)[C@H](O)[C@H]2O[C@H]2C[C@](C)(N)[C@H](O)[C@H](C)O2)Oc2ccc(cc2Cl)[C@H]1O [VANCOMYCIN] | – | – | 1 (≈ 0.69 µM) | 1 (≈ 0.69 µM) | – | – | – | 2 (≈ 1.38 µM) | – | – | – | – | Activity (Staphylococcus aureus [9]): 4 log10CFU/ml
4 | NC(=O)c1c(F)ccc(OCc2nn(-c3ccc(Br)cc3)c(=O)o2)c1F | 0.5 (≈ 1.17 µM) | 1 (≈ 2.35 µM) | 1 (≈ 2.35 µM) | 1 (≈ 2.35 µM) | > 64 | 1 (≈ 2.35 µM) | 0.125 (≈ 0.293 µM) | 1 (≈ 2.35 µM) | 1 (≈ 2.35 µM) | 1 (≈ 2.35 µM) | > 64 | – | CLH [12]: 24.3%; Activity (Staphylococcus aureus [13]): 4 log10CFU/ml; Ratio (Staphylococcus aureus [6]): 1; Activity [14]: Dose-dependent effect; IC50 (HeLa): > 64 µg/mL; Activity (Bacillus pumilus [15]): Active; half-life [16]: > 90 min; Stability [17]: Unstable; half-life at 25 ug/ml [18]: 150 min
5 | NC(=O)c1c(F)ccc(OCc2nn(-c3ccc(Br)cc3)c(=O)[nH]2)c1F | – | > 64 | – | – | > 64 | > 64 | > 64 | – | > 64 | > 64 | > 64 | inactive | CLH [12]: 24.3%; half-life [16]: > 90 min; Stability [17]: Stable
6 | NC(=O)c1c(F)ccc(OCn2nc(-c3ccc(Cl)cc3)oc2=O)c1F | > 64 | > 64 | – | – | > 64 | > 64 | > 64 | – | > 64 | > 64 | > 64 | inactive | –
7 | CC(=O)NC[C@H]1CN(c2ccc(N3CCOCC3)c(F)c2)C(=O)O1 [LINEZOLID] | 1 (≈ 2.96 µM) | 2 (≈ 5.93 µM) | > 64 | > 64 | > 64 | – | 0.5 (≈ 1.48 µM) | > 64 | – | – | > 64 | inactive | Activity (Staphylococcus aureus [19]): 1 log10CFU/ml
8 | CCn1c(COc2ccc(F)c(C(N)=O)c2F)nn(-c2ccc(Br)cc2)c1=O | – | > 64 | – | – | > 64 | > 64 | > 64 | – | > 64 | > 64 | > 64 | inactive | –
9 | N#Cc1ccc(-n2nc(COc3ccc(F)c(C(N)=O)c3F)oc2=O)cc1 | 16 (≈ 43 µM) | 4 (≈ 10.7 µM) | – | – | > 64 | 4 (≈ 10.7 µM) | 2 (≈ 5.37 µM) | – | 4 (≈ 10.7 µM) | 8 (≈ 21.5 µM) | > 64 | – | –
10 | CCc1ccc(-n2nc(COc3ccc(F)c(C(N)=O)c3F)oc2=O)cc1 | 2 (≈ 5.33 µM) | 4 (≈ 10.7 µM) | – | – | > 64 | 2 (≈ 5.33 µM) | 0.5 (≈ 1.33 µM) | – | 2 (≈ 5.33 µM) | 4 (≈ 10.7 µM) | > 64 | – | –
11 | Cc1ccc(-n2nc(COc3ccc(F)c(C(N)=O)c3F)oc2=O)c(C)c1 | 32 (≈ 85.3 µM) | 2 (≈ 5.33 µM) | – | – | > 64 | 32 (≈ 85.3 µM) | 2 (≈ 5.33 µM) | – | 16 (≈ 42.6 µM) | 64 (≈ 171 µM) | > 64 | – | –
12 | Cc1cccc(-n2nc(COc3ccc(F)c(C(N)=O)c3F)oc2=O)c1 | 64 (≈ 177 µM) | 64 (≈ 177 µM) | – | – | > 64 | 64 (≈ 177 µM) | 16 (≈ 44.3 µM) | – | 64 (≈ 177 µM) | > 64 | > 64 | – | –
